Values of other authors, collected in patent US20250345482A1, “3D PRINTED GALLIUM SCAFFOLD” (Northeast Ohio Medical University, priority 2024, published 2025).

Columns and labels:
[1] = test system: osteoclast differentiation and function; conditions: inventors' earlier publication (Ghanta P. et al. 2023)
NFAT2, TRAP, and c-Fos = conditions: literature (Verron E et al. 2012)

Compound | Osteoclast differentiation and function [1] | Effect on transcription factors responsible for osteoclast differentiation (NFAT2, TRAP, and c-Fos)
CC(=O)/C=C(/C)[O][Ga]([O]/C(C)=C\C(C)=O)[O]/C(C)=C\C(C)=O [GaAcAc, gallium acetylacetonate] | effectively inhibited | –
O=[N+]([O-])[O-].O=[N+]([O-])[O-].O=[N+]([O-])[O-].[Ga+3] [gallium nitrate] | – | dose-dependent downregulation
